Activity calls are given as the source filed them. No rule for the calls is given here.
How the values were obtained:
BoNT/ALC = test: confirmation, biochemical, FRET, cleavage-site specific substrates (AID 651691); conditions: FRET protease cleavage assay, BoNT/A LC or LF
LF = test: as above; conditions: FRET protease cleavage assay, BoNT/A LC or LF

Row | SMILES | IC50 (BoNT/ALC) | IC50 (LF)
1 | Cc1ccc(-c2cn3nc(-c4ccccc4)c(-c4ccccc4)nc3n2)cc1 | 300 nM | inactive
2 | O=C(Nc1ccc2nc(-c3cccs3)c(-c3cccs3)nc2c1)N1CCCCC1 | 1200 nM | –
3 | COc1ccccc1N1N=C(c2ccc([N+](=O)[O-])cc2)CC1c1ccccc1 (stereo not given) | 200 nM | –
4 | c1ccc(-c2cn3nc(-c4ccccc4)c(-c4ccccc4)nc3n2)cc1 | 500 nM | –
5 | O=[N+]([O-])c1ccc(N2N=C(c3ccccc3)CC2c2ccccc2)cc1 (stereo not given) | 1000 nM | –
6 | Clc1ccc(-c2cn3nc(-c4ccccc4)c(-c4ccccc4)nc3n2)cc1 | 700 nM | inactive
7 | O=C(Nc1ccc2nc(-c3cccs3)c(-c3cccs3)nc2c1)N1CCOCC1 | > 20000 nM (inactive) | –
8 | O=C(Nc1ccc2nc(-c3cccs3)c(-c3cccs3)nc2c1)NC1CC1 | > 20000 nM (inactive) | inactive
9 | COc1ccc(C2CC(c3cccs3)=NN2c2nc(C)c(C(C)=O)s2)cc1OC (stereo not given) | 1300 nM | –
10 | O=[N+]([O-])c1ccc(C2=NN(c3ccccc3)C(c3ccco3)C2)cc1 (stereo not given) | > 20000 nM (inactive) | –
11 | COc1ccc(-c2cn3nc(-c4ccccc4)c(-c4ccccc4)nc3n2)cc1 | 500 nM | inactive

Source: PubChem BioAssay AID651691 (NMMLSC, 2012)
